Entries after “also recorded” stand apart in the source; their conditions may differ. Where two headings read alike, the source gives them in different places.
Tests used:
[1] = tested on: murine hepatitis virus (MHV); experiment: microbe, parasite or virus in culture; type: cell-based
SARS-CoV-2 [2] = experiment: microbe, parasite or virus in culture; type: cell-based; conditions: Severe acute respiratory syndrome coronavirus 2, A549-ACE2
HCoV 229E = HCoV 229E antiviral assay in Huh-7 cells; type: cell-based, human coronavirus 229E; conditions: 5 μM
[3] = Cytotoxicity in Caco-2 cells (CC50); type: cell-based; conditions: human
[4] = in vivo; cited from earlier work
SARS-CoV-2 [5] = tested on: SARS-CoV-2; parameters: species or system K18-hACE2 mice; conditions: mouse, in vivo
[6] = tested on: SARS-CoV-2 (isolate USA WA1/2020)
VEGF = conditions: by day 28, severe COVID-19; cited from earlier work
Chain of VEGF (P15692 207-311 limits assumed): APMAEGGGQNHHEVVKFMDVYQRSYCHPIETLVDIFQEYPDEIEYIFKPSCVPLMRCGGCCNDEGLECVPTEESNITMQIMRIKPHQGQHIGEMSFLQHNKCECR

`CN(C)C/C=C/C(=O)Nc1cc2c(Nc3ccc(F)c(Cl)c3)ncnc2cc1O[C@H]1CCOC1` [Afatinib] showed an inhibition at 10 µM ([1]; Murine coronavirus, DBT cells) of 98%.

Work on `CCc1cc2c(cc1N1CCC(N3CCOCC3)CC1)C(C)(C)c1[nH]c3cc(C#N)ccc3c1C2=O` [Alectinib] yielded an inhibition at 10 µM ([1]; Murine coronavirus, DBT cells) of 62%.

Work on `COc1cc(N2CCC(N3CCN(C)CC3)CC2)ccc1Nc1ncc(Cl)c(Nc2ccccc2P(C)(C)=O)n1` [Brigatinib] yielded an inhibition at 10 µM ([1]; Murine coronavirus, DBT cells) of 39%.

`COc1cc2nccc(Oc3ccc(NC(=O)C4(C(=O)Nc5ccc(F)cc5)CC4)cc3)c2cc1OC` [Cabozantinib] gave an inhibition at 10 µM ([1]; Murine coronavirus, DBT cells) of 61%.

With `CCS(=O)(=O)N1CCN(c2ccc(Nc3ncc(C(N)=O)c(NC4CC4)n3)cc2)CC1` [Cerdulatinib] the inhibition at 10 µM ([1]; Murine coronavirus, DBT cells) was 78%.

For `Cc1cc(Nc2ncc(Cl)c(Nc3ccccc3S(=O)(=O)C(C)C)n2)c(OC(C)C)cc1C1CCNCC1` [Ceritinib], the inhibition at 10 µM ([1]; Murine coronavirus, DBT cells) was 94%.

Work on `O=C(c1ccc(F)c(F)c1Nc1ccc(I)cc1F)N1CC(O)([C@@H]2CCCCN2)C1` [Cobimetinib] yielded an inhibition at 10 µM ([1]; Murine coronavirus, DBT cells) of 82%.

In the case of `CC(C)(C)c1nc(-c2cccc(NS(=O)(=O)c3c(F)cccc3F)c2F)c(-c2ccnc(N)n2)s1` [Dabrafenib], the inhibition at 10 µM ([1]; Murine coronavirus, DBT cells) is reported as -12%.

For `Cc1nc(Nc2ncc(C(=O)Nc3c(C)cccc3Cl)s2)cc(N2CCN(CCO)CC2)n1` [Dasatinib], the inhibition at 10 µM ([1]; Murine coronavirus, DBT cells) was 65%.

`CNC(=O)c1ccc(Nc2ncc(C(F)(F)F)c(NCc3nccnc3N(C)S(C)(=O)=O)n2)cc1` [Defactinib] gave an inhibition at 10 µM ([1]; Murine coronavirus, DBT cells) of 36%.

In the case of `CN1CCN(c2ccc(C(=O)Nc3n[nH]c4ccc(Cc5cc(F)cc(F)c5)cc34)c(NC3CCOCC3)c2)CC1` [Entrectinib], the IC50 (SARS-CoV-2 [2]) is reported as 1970 nM, the “Reduction of HCoV-229E titer” value (HCoV 229E) is reported as 2.7 logTCID50/mL and the CC50 [3] is reported as 3600 nM. It also gave an inhibition at 10 µM ([1]; Murine coronavirus, DBT cells) of 97%.

With `C#Cc1cccc(Nc2ncnc3cc(OCCOC)c(OCCOC)cc23)c1` [Erlotinib] the inhibition at 10 µM ([1]; Murine coronavirus, DBT cells) was 32%.

`CO[C@H]1C[C@@H]2CC[C@@H](C)[C@@](O)(O2)C(=O)C(=O)N2CCCC[C@H]2C(=O)O[C@H]([C@H](C)C[C@@H]2CC[C@@H](OCCO)[C@H](OC)C2)CC(=O)[C@H](C)/C=C(\C)[C@@H](O)[C@@H](OC)C(=O)[C@H](C)C[C@H](C)/C=C/C=C/C=C/1C` [Everolimus] gave an inhibition at 10 µM ([1]; Murine coronavirus, DBT cells) of 46%.

`Cc1ncc(NC(=O)c2ccc(CN3CCN(C)CC3)c(C(F)(F)F)c2)cc1Nc1nccc(-c2cccnc2)n1` [Flumatinib] showed an inhibition at 10 µM ([1]; Murine coronavirus, DBT cells) of 83%.

In the case of `Cc1cccc(-c2nn3c(c2-c2ccnc4ccc(C(N)=O)cc24)CCC3)n1` [Galunisertib], the inhibition at 10 µM ([1]; Murine coronavirus, DBT cells) is reported as 26%.

For `C=CC(=O)N1CCC[C@@H](n2nc(-c3ccc(Oc4ccccc4)cc3)c3c(N)ncnc32)C1` [Ibrutinib], the inhibition at 10 µM ([1]; Murine coronavirus, DBT cells) was -69%.

`CC[C@H](Nc1ncnc2nc[nH]c12)c1nc2cccc(F)c2c(=O)n1-c1ccccc1` [Idelalisib] showed an inhibition at 10 µM ([1]; Murine coronavirus, DBT cells) of 17%.

With `Cc1ccc(NC(=O)c2ccc(CN3CCN(C)CC3)cc2)cc1Nc1nccc(-c2cccnc2)n1` [Imatinib] the inhibition at 10 µM ([1]; Murine coronavirus, DBT cells) was 81%.

In the case of `CS(=O)(=O)CCNCc1ccc(-c2ccc3ncnc(Nc4ccc(OCc5cccc(F)c5)c(Cl)c4)c3c2)o1` [Lapatinib], the inhibition at 10 µM ([1]; Murine coronavirus, DBT cells) is reported as 88%.

`C[C@]1(O)C[C@@H](c2nc(-c3ccc4ccc(-c5ccccc5)nc4c3)c3c(N)nccn32)C1` [Linsitinib] gave an inhibition at 10 µM ([1]; Murine coronavirus, DBT cells) of 46%.

With `COc1cc2nccc(Oc3ccc(NC(=O)NC4CC4)c(Cl)c3)c2cc1C(N)=O` [Lonvatinib] the inhibition at 10 µM ([1]; Murine coronavirus, DBT cells) was -12%.

For `Cc1cn(-c2cc(NC(=O)c3ccc(C)c(Nc4nccc(-c5cccnc5)n4)c3)cc(C(F)(F)F)c2)cn1` [Nilotinib], the inhibition at 10 µM ([1]; Murine coronavirus, DBT cells) was 66%.

Work on `COC(=O)c1ccc2c(c1)NC(=O)/C2=C(\Nc1ccc(N(C)C(=O)CN2CCN(C)CC2)cc1)c1ccccc1` [Nintedanib] yielded an inhibition at 10 µM ([1]; Murine coronavirus, DBT cells) of 95%.

In the case of `C=CC(=O)Nc1cc(Nc2nccc(-c3cn(C)c4ccccc34)n2)c(OC)cc1N(C)CCN(C)C` [Osimertinib], the inhibition at 10 µM ([1]; Murine coronavirus, DBT cells) is reported as 98%.

For `CC(=O)c1c(C)c2cnc(Nc3ccc(N4CCNCC4)cn3)nc2n(C2CCCC2)c1=O` [Palbociclib], the inhibition at 10 µM ([1]; Murine coronavirus, DBT cells) was 5%.

In the case of `Cc1ccc(Nc2nccc(N(C)c3ccc4c(C)n(C)nc4c3)n2)cc1S(N)(=O)=O` [Pazopanib], the inhibition at 10 µM ([1]; Murine coronavirus, DBT cells) is reported as 20%.

`Cc1ccc(C(=O)Nc2ccc(CN3CCN(C)CC3)c(C(F)(F)F)c2)cc1C#Cc1cnc2cccnn12` [Ponatinib] gave an inhibition at 10 µM ([1]; Murine coronavirus, DBT cells) of 98%.

Work on `CNC(=O)c1cc(Oc2ccc(NC(=O)Nc3ccc(Cl)c(C(F)(F)F)c3)c(F)c2)ccn1` [Regorafenib] yielded an inhibition at 10 µM ([1]; Murine coronavirus, DBT cells) of 65%.

In the case of `CN(C)C(=O)c1cc2cnc(Nc3ccc(N4CCNCC4)cn3)nc2n1C1CCCC1` [Ribociclib], the inhibition at 10 µM ([1]; Murine coronavirus, DBT cells) is reported as -4%.

In the case of `CNCc1ccc(-c2[nH]c3cc(F)cc4c3c2CCNC4=O)cc1` [Rucaparib], the inhibition at 10 µM ([1]; Murine coronavirus, DBT cells) is reported as -48%.

Work on `N#CC[C@H](C1CCCC1)n1cc(-c2ncnc3[nH]ccc23)cn1` [Ruxolitinib] yielded an inhibition at 10 µM ([1]; Murine coronavirus, DBT cells) of -46%.

`CNC(=O)c1cc(Oc2ccc(NC(=O)Nc3ccc(Cl)c(C(F)(F)F)c3)cc2)ccn1` [Sorafenib] showed an inhibition at 10 µM ([1]; Murine coronavirus, DBT cells) of 74%.

Compound `CCN(CC)CCNC(=O)c1c(C)[nH]c(/C=C2\C(=O)Nc3ccc(F)cc32)c1C` [Sunitinib] has an inhibition at 10 µM ([1]; Murine coronavirus, DBT cells) of 96%.

Compound `CO[C@H]1C[C@@H]2CC[C@@H](C)[C@@](O)(O2)C(=O)C(=O)N2CCCC[C@H]2C(=O)O[C@H]([C@H](C)C[C@@H]2CC[C@@H](OC(=O)C(C)(CO)CO)[C@H](OC)C2)CC(=O)[C@H](C)/C=C(\C)[C@@H](O)[C@@H](OC)C(=O)[C@H](C)C[C@H](C)/C=C/C=C/C=C/1C` [Temsirolimus] has an inhibition at 10 µM ([1]; Murine coronavirus, DBT cells) of 4%.

In the case of `COc1cc2nccc(Oc3ccc(NC(=O)Nc4cc(C)on4)c(Cl)c3)c2cc1OC` [Tivozanib], the inhibition at 10 µM ([1]; Murine coronavirus, DBT cells) is reported as 29%.

With `C[C@@H]1CCN(C(=O)CC#N)C[C@@H]1N(C)c1ncnc2[nH]ccc12` [Tofacitinib] the inhibition at 10 µM ([1]; Murine coronavirus, DBT cells) was -7%.

Work on `CC(=O)Nc1cccc(-n2c(=O)n(C3CC3)c(=O)c3c(Nc4ccc(I)cc4F)n(C)c(=O)c(C)c32)c1` [Trametinib] yielded an inhibition at 10 µM ([1]; Murine coronavirus, DBT cells) of -40%.

For `COc1cc2c(Nc3ccc(Br)cc3F)ncnc2cc1OCC1CCN(C)CC1` [Vandetanib], the IC50 (SARS-CoV-2 [2]) is given as 790 nM, the “Absorption from the gut” value [4] is given as “well absorbed” and the Average half-life [4] is given as 19 days. For the same compound, the “Excreted via the feces” value [4] was 44%, the “Excreted via the urine” value [4] was 25% and the Protein-bound [4] was 92-94%. For the same compound, the Terminal excretion half-life [4] was 20 days, the “Time to peak blood plasma concentrations” value [4] was 4 to 10 h and the “Reduction of HCoV-229E titer” value (HCoV 229E) was greater than 3. For the same compound, the CC50 [3] was 4100 nM, the “Lung CCL2 level” value (SARS-CoV-2 [5]) was “significantly reduced; also recorded: decreased” and the “Lung CCL3 level” value (SARS-CoV-2 [5]) was “significantly reduced; also recorded: decreased”. For the same compound, the “Lung CCL4 level” value (SARS-CoV-2 [5]) was “reduced; also recorded: decreased”, the “Lung IL-6 level” value (SARS-CoV-2 [5]) was “statistically significantly reduced” and the “Lung IL-10 level” value (SARS-CoV-2 [5]) was “statistically significantly reduced”. The “Lung TNF-α level” value (SARS-CoV-2 [5]) was “statistically significantly reduced”, the “Lung pathology / inflammatory cell infiltrates” value (SARS-CoV-2 [5]) was “mitigated inflammatory cell infiltrates” and the “Lung viral load (viral RNA, RT-PCR)” value (SARS-CoV-2 [5]) was “did not reduce”. The “Lung IFN-1β level” value (SARS-CoV-2 [5]; listed as vandetanib) was “restored the levels; also recorded: rescued”, the “Lung IL-6 level” value (SARS-CoV-2 [5]; listed as vandetanib) was “reduces” and the “Lung IL-10 level” value (SARS-CoV-2 [5]; listed as vandetanib) was “reduces”. For the same compound, the “Lung TNF-α level” value (SARS-CoV-2 [5]; listed as vandetanib) was “reduces”, the “Lung pathology / inflammatory cell infiltrates” value (SARS-CoV-2 [5]; listed as vandetanib) was “clear protective effect; also recorded: significant treatment effect with mild infiltration” and the “Lung viral load (viral RNA, RT-PCR)” value (SARS-CoV-2 [5]; listed as vandetanib) was “no significant reduction; also recorded: not observed”. The inhibition at 10 µM ([1]; Murine coronavirus, DBT cells) was 97% and the IC50 ([1]; Murine coronavirus, DBT cells, FIG. 5, read-out: IC50 against MHV) was 1600 nM.

`CCCS(=O)(=O)Nc1ccc(F)c(C(=O)c2c[nH]c3ncc(-c4ccc(Cl)cc4)cc23)c1F` [Vemourafenib] gave an inhibition at 10 µM ([1]; Murine coronavirus, DBT cells) of -3%.

`CCC(CC)COC(=O)[C@H](C)N[P@](=O)(OC[C@H]1O[C@@](C#N)(c2ccc3c(N)ncnn23)[C@H](O)[C@@H]1O)Oc1ccccc1` [remdesivir] showed an IC50 (SARS-CoV-2 [2]) of 110 nM.

In the case of Alisertib, the “% Inhibition MHV-DBT cells 10 μM” value [1] is reported as 19%.

In the case of Crizotinib, the “Calu-3 result (toxicity)” value [6] is reported as “toxic” and the “% Inhibition MHV-DBT cells 10 μM” value [1] is reported as 96%.

In the case of bevacizumab, the Patients discharged (VEGF) is given as 65%, the “Patients with improvement in oxygen-support status” value (VEGF) is given as 92% and the “Patients with worsened oxygen-support status or died” value (VEGF) is given as “none”.

From patent US20250332170A1, “VANDETANIB REDUCES INFLAMMATORY CYTOKINES AND AMELIORATES COVID-19” (Collaborations Pharmaceuticals, Inc., priority 2021, published 2025)
